Experimental data as given in article PMC4522399 (Journal of pharmaceutical sciences, 2015).

What was measured:
[1] = in vivo; conditions: male, Balb/c, mouse, iv, 0.08 mmol/kg
[2] = molecular target: T1, human NTCP (Homo sapiens, UniProt Q14973); conditions: native substrate, comparison value; cited from earlier work
T1 sequence (Q14973 1-349): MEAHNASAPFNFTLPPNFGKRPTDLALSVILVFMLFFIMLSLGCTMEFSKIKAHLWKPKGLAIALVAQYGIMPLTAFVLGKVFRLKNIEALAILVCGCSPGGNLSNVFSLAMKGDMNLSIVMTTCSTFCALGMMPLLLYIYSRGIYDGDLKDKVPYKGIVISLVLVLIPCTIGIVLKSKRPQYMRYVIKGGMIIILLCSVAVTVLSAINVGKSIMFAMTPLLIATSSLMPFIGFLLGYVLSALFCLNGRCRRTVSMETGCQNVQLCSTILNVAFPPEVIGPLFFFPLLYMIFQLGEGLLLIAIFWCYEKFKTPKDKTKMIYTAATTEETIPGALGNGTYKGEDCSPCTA

| SMILES | Tmax [1] [min] | Kt [2] [µM] |
| --- | --- | --- |
| NC(=O)c1ncn([C@@H]2O[C@H](CO)[C@@H](O)[C@H]2O)n1 [ribavirin, Ribavirin] | 30 | – |
| C[C@H](CCC(=O)NCCS(=O)(=O)O)[C@H]1CC[C@H]2[C@@H]3[C@H](O)C[C@@H]4C[C@H](O)CC[C@]4(C)[C@H]3C[C@H](O)[C@]12C [taurocholate] | – | 22.7 |
